≈ marks a conversion by molar mass, not a printed value.
How the values were obtained:
[1] = Solubility in fasted-state simulated colonic fluid (FaSSCoF) at pH 6.5; format: physicochemical; settings: 25 °C, pH 6.5, fassgf or other biorelevant, thermodynamic from solid
Experimental: The solubilities of compounds of the invention in FaSSCoF at pH 6.5 are determined using a modification of a previously-reported procedure (Vertzoni, M., et al. Pharm. Res. 2010, 27, 2187-2196). In place of the bile salt extract employed in the original procedure (which extract is no longer available), the modified procedure uses a mixture of sodium taurochlorate (0.15 g), glycocholic acid (0.15 g), ursodeoxycholic acid (0.05 g), cholic acid (0.05 g), and glycodeoxycholic acid (0.05 g). These five bile acids are ground together with a mortar and pestle to produce a fine white powder that is incorporated into the FaSSCoF, as outlined below.
Tris(hydroxymethyl)aminomethane (Tris; 0.275 g) and maleic acid (0.44 g) are dissolved in water (35 mL) to give a solution whose pH is adjusted to 6.5 by treatment with 0.5M NaOH (ca. 12 mL). The solution is then made up to 50 mL with water. A portion of this Tris/maleate buffer solution (ca. 25 mL) is added to a 0.5 L round-bottomed flask, before being treated with 0.00565 g of the bile acid mixture described above. Solutions of phosphatidylcholine (0.0111 g) in DCM (0.15 mL) and palmitic acid (0.0013 g) in DCM (0.15 mL) are added, then the organic solvent is evaporated off under reduced pressure at 40° C. until a clear solution, with no perceptible DCM odour, is achieved. The volume of the evaporated solution is adjusted to 50 mL by addition of the remainder of Tris/maleate buffer, then BSA (0.115 g) is added, before being dissolved by gentle agitation.
Test compounds are suspended in the pH 6.5 FaSSCoF medium to give a maximum final concentration of 2-10 mg/mL. The suspensions are equilibrated at 25° C. for 24 h, before being filtered through a glass fibre C filter. The filtrates are then diluted as appropriate for injection and quantification by HPLC with reference to a standard. Different volumes of the standard, diluted and undiluted sample solutions are injected and the solubilities are calculated using the peak areas determined by integration of the peak found at the same retention time as the principal peak in the standard injection.

Jurkat cells = experiment: Cell cytotoxicity assay (r); format: cell-based, human; settings: 24 hours
Experimental: 1×10^5 Jurkat cells (immortalised human T lymphocytes) are added to the appropriate number of wells of a 96 well plate in 100 μL of media (RPMI supplemented with 10% foetal bovine serum). 1 μL of DMSO control (final concentration 1.0% v/v) or test compound (final concentration 20, 5 or 1 μg/mL) is added to the wells and incubated at 37° C., 5% CO2. After 24 hours, the plate is centrifuged at 1200 rpm for 3 minutes and the supernatant discarded. Cells are then resuspended in 150 μL (final concentration 7.5 μg/mL) of propidium iodide (PI) in PBS and incubated at 37° C., 5% CO2 for 15 minutes. After 15 minutes, cells are analysed by flow cytometry (BD accuri) using the FL3 window. The % viability is calculated as the % of cells that are PI negative in the test wells normalised to the DMSO control.

[2] = pH 6.5 FaSSCoF Solubility (mg/mL) Run 1
[3] = pH 6.5 FaSSCoF Solubility (mg/mL) Run 2

solubility thermodynamic at 24 h [1, 2] [µg/mL]	solubility thermodynamic at 24 h [1, 3] [µg/mL]	SMILES	% Viability at 20 μg/mL (Jurkat cells) [%]	% Viability at 1 μg/mL (Jurkat cells) [%]	% Viability at 5 μg/mL (Jurkat cells) [%]
12 (≈ 16.6 µM)	10 (≈ 13.8 µM)	COc1cc(Nc2cc(Oc3ccc(NC(=O)Nc4cc(C(C)(C)C)cc(NS(C)(=O)=O)c4OC)c4ccccc34)ccn2)ccc1-c1nn[nH]n1 [Example 24, N-(5-(tert-Butyl)-2-methoxy-3-(3-(4-((2-((3-methoxy-4-(2H-tetrazol-5-yl)phenyl)amino)pyridin-4-yl)oxy)naphthalen-1-yl)ureido)phenyl)methanesulfonamide]	9.7	–	–
32 (≈ 36.8 µM)	23 (≈ 26.5 µM)	COc1cc(Nc2cc(Oc3ccc(NC(=O)Nc4cc(C(C)(C)C)cc(NS(C)(=O)=O)c4OC)c4ccccc34)ccn2)cc(OC)c1C(=O)NCCCN1CCN(C)CC1 [17(au), 4-((4-((4-(3-(5-(tert-Butyl)-2-methoxy-3-(methylsulfonamido)phenyl)ureido)naphthalen-1-yl)oxy)pyridin-2-yl)amino)-2,6-dimethoxy-N-(3-(4-methylpiperazin-1-yl)propyl)benzamide]	–	94.0	–
5 (≈ 5.97 µM)	5 (≈ 5.97 µM)	COc1cc(Nc2cc(Oc3ccc(NC(=O)Nc4cc(C(C)(C)C)cc(NS(C)(=O)=O)c4OC)c4ccccc34)ccn2)ccc1S(=O)(=O)CC(CO)(CO)CO [Example 45, N-(5-(tert-Butyl)-3-(3-(4-((2-((4-((3-hydroxy-2,2-bis(hydroxymethyl)propyl)sulfonyl)-3-methoxyphenyl)amino)pyridin-4-yl)oxy)naphthalen-1-yl)ureido)-2-methoxyphenyl)-methanesulfonamide]	9.8	–	–
–	–	CCN1CCN(CCNC(=O)c2ccc(Nc3cc(Oc4ccc(NC(=O)Nc5cc(C(C)(C)C)cc(NS(C)(=O)=O)c5OC)c5ccccc45)ccn3)cc2OC)CC1 [17(be), 4-((4-((4-(3-(5-(tert-Butyl)-2-methoxy-3-(methylsulfonamido)phenyl)ureido)naphthalen-1-yl)oxy)pyridin-2-yl)amino)-N-(2-(4-ethylpiperazin-1-yl)ethyl)-2-methoxybenzamide]	0.5	–	0.7
35 (≈ 44 µM)	33 (≈ 41.5 µM)	COc1cc(Nc2cc(Oc3ccc(NC(=O)Nc4cc(NS(C)(=O)=O)cc(C(C)(C)C)c4)c4ccccc34)ccn2)ccc1C(=O)NCCN1CCN(C)CC1 [17(bo), 4-((4-((4-(3-(3-(tert-Butyl)-5-(methylsulfonamido)phenyl)ureido)naphthalen-1-yl)oxy)pyridin-2-yl)amino)-2-methoxy-N-(2-(4-methylpiperazin-1-yl)ethyl)benzamide]	14.0	–	–
–	–	COc1cc(Nc2cc(Oc3ccc(NC(=O)Nc4cc(C(C)(C)C)cc(C(=O)NCCO)c4OC)c4ccccc34)ccn2)ccc1C(=O)NCCN1CC[S+]([O-])CC1 [Example 32, 5-(tert-Butyl)-N-(2-hydroxyethyl)-2-methoxy-3-(3-(4-((2-((3-methoxy-4-((2-(1-oxidothiomorpholino)ethyl)carbamoyl)phenyl)amino)pyridin-4-yl)oxy)naphthalen-1-yl)ureido)benzamide]	2.5	–	–
–	–	COc1cc(Nc2cc(Oc3ccc(NC(=O)Nc4cc(NS(C)(=O)=O)cc(C(C)(C)C)c4)c4ccccc34)ccn2)ccc1C(=O)NCCC1CCN(C)CC1 [17(bs), 4-((4-((4-(3-(3-(tert-Butyl)-5-(methylsulfonamido)phenyl)ureido)naphthalen-1-yl)oxy)pyridin-2-yl)amino)-2-methoxy-N-(2-(1-methylpiperidin-4-yl)ethyl)benzamide]	0.3	–	–
–	–	COc1cc(Nc2cc(Oc3ccc(NC(=O)Nc4cc(C(C)(C)C)cc(NS(C)(=O)=O)c4OC)c4ccccc34)ccn2)ccc1C(=O)NCCCCCN(C)C [17(bd), 4-((4-((4-(3-(5-(tert-Butyl)-2-methoxy-3-(methylsulfonamido)phenyl)ureido)naphthalen-1-yl)oxy)pyridin-2-yl)amino)-N-(5-(dimethylamino)pentyl)-2-methoxybenzamide]	0.1	–	–
–	–	COc1cc(Nc2cc(Oc3ccc(NC(=O)Nc4cc(C(C)(C)C)cc(NS(C)(=O)=O)c4OC)c4ccccc34)ccn2)ccc1C(=O)NCCN1CC[C@@H](O)C1 [17(cr), (R)-4-((4-((4-(3-(5-(tert-Butyl)-2-methoxy-3-(methylsulfonamido)phenyl)ureido)-naphthalen-1-yl)oxy)pyridin-2-yl)amino)-N-(2-(3-hydroxypyrrolidin-1-yl)ethyl)-2-methoxybenzamide]	0.9	–	18.0
–	–	COc1cc(Nc2cc(Oc3ccc(NC(=O)Nc4cc(C(C)(C)C)cc(NS(C)(=O)=O)c4OC)c4ccccc34)ccn2)ccc1C(=O)NCCC1CCNCC1 [Example 27, 4-((4-((4-(3-(5-(tert-Butyl)-2-methoxy-3-(methylsulfonamido)phenyl)ureido)naphthalen-1-yl)oxy)pyridin-2-yl)amino)-2-methoxy-N-(2-(piperidin-4-yl)ethyl)benzamide]	1.7	–	–
–	–	COc1cc(Nc2cc(Oc3ccc(NC(=O)Nc4cc(C(C)(C)C)cc(NS(C)(=O)=O)c4OC)c4ccccc34)ccn2)ccc1C(=O)NCCN1CCN(C)CC1(C)C [17(bi), 4-((4-((4-(3-(5-(tert-Butyl)-2-methoxy-3-(methylsulfonamido)phenyl)ureido)naphthalen-1-yl)oxy)pyridin-2-yl)amino)-2-methoxy-N-(2-(2,2,4-trimethylpiperazin-1-yl)ethyl)benzamide]	0.6	–	0.8
–	–	CCC(=O)NS(=O)(=O)c1ccc(Nc2nccc(Oc3ccc(NC(=O)Nc4cc(C(C)(C)C)cc(NS(C)(=O)=O)c4OC)c4ccccc34)n2)cc1OC [17(bk), N-((4-((4-((4-(3-(5-(tert-Butyl)-2-methoxy-3-(methylsulfonamido)phenyl)ureido)-naphthalen-1-yl)oxy)pyrimidin-2-yl)amino)-2-methoxyphenyl)sulfonyl)propionamide]	–	93.0	–
–	–	COc1cc(Nc2cc(Oc3ccc(NC(=O)Nc4cc(C(C)(C)C)cc(NS(C)(=O)=O)c4OC)c4ccccc34)ccn2)ccc1S(=O)(=O)CCCN1CCN(C)CC1 [17(ch), N-(5-(tert-Butyl)-2-methoxy-3-(3-(4-((2-((3-methoxy-4-((3-(4-methylpiperazin-1-yl)propyl)sulfonyl)phenyl)amino)pyridin-4-yl)oxy)naphthalen-1-yl)ureido)phenyl)methanesulfonamide]	0.7	82.0	–
–	–	COc1cc(Nc2cc(Oc3ccc(NC(=O)Nc4cc(C(C)(C)C)cc(NS(C)(=O)=O)c4OC)c4ccccc34)ccn2)ccc1S(=O)(=O)N(C)CCCN1CCN(C)CC1 [Example 25, 4-((4-((4-(3-(5-(tert-Butyl)-2-methoxy-3-(methylsulfonamido)phenyl)ureido)naphthalen-1-yl)oxy)pyridin-2-yl)amino)-2-methoxy-N-methyl-N-(3-(4-methylpiperazin-1-yl)propyl)benzenesulfonamide]	0.7	–	–
–	–	COc1cc(Nc2cc(Oc3ccc(NC(=O)Nc4cc(C(C)(C)C)cc(NS(C)(=O)=O)c4OC)c4ccccc34)ccn2)ccc1C(=O)N[C@@H]1CCN(C)C1 [17(cq), (R)-4-((4-((4-(3-(5-(tert-Butyl)-2-methoxy-3-(methylsulfonamido)phenyl)ureido)-naphthalen-1-yl)oxy)pyridin-2-yl)amino)-2-methoxy-N-(1-methylpyrrolidin-3-yl)benzamide]	0.7	–	9.0
–	–	COc1cc(Nc2nccc(Oc3ccc(NC(=O)Nc4cc(C(C)(C)C)cc(NS(C)(=O)=O)c4OC)c4ccccc34)n2)ccc1C(=O)NCCOCCOCCO [17(by), 4-((4-((4-(3-(5-(tert-Butyl)-2-methoxy-3-(methylsulfonamido)phenyl)ureido)naphthalen-1-yl)oxy)pyrimidin-2-yl)amino)-N-(2-(2-(2-hydroxyethoxy)ethoxy)ethyl)-2-methoxybenzamide]	1.6	–	–

From US9751837B2, “Kinase inhibitors” (RESPIVERT LIMITED, priority 2014, dated 2017)
